Columns and labels:
Type in all cases: in vivo
corn (Zea mays) = test: Test A pre-/postemergence plant response
Method in brief: (§1)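 Each species was treated preemergence via directed soil spray and postemergence at the one- to two-leaf stage, with compounds formulated in a non-phytotoxic solvent plus surfactant. Visual injury relative to untreated controls was rated after about ten days on a 0–100 scale.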

[1] = tested on: giant foxtail (Setaria faberii); test: Test A pre-/postemergence plant response
Method in brief: as §1

[2] = tested on: large crabgrass (Digitaria sanguinalis); test: Test A pre-/postemergence plant response
Method in brief: as §1

[3] = tested on: morningglory (Ipomoea spp.); test: Test A pre-/postemergence plant response
Method in brief: as §1

[4] = tested on: velvetleaf (Abutilon theophrasti); test: Test A pre-/postemergence plant response
Method in brief: as §1

[5] = tested on: wheat (Triticum aestivum); test: Test A pre-/postemergence plant response
Method in brief: as §1

[6] = tested on: canarygrass (Phalaris minor); test: Test B postemergence plant response; settings: for Canarygrass plant response rating (0 to 100 scale): 0 is no effect
Method in brief: (§2)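 Plants at the 1- to 4-leaf stage (2 to 18 cm tall), grown in pots of peat moss/vermiculite medium with wetting agent and starter nutrients, received postemergence applications of test chemicals. After 13 to 15 days in a greenhouse, injury was rated visually against untreated controls on a 0 (no effect) to 100 (complete control) scale.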

[7] = tested on: chickweed (Stellaria media); test: Test B postemergence plant response; settings: for Chickweed plant response rating (0 to 100 scale): 0 is no effect
Method in brief: as §2

[8] = tested on: windgrass (Apera spica-venti); test: Test B postemergence plant response; settings: for Plant response rating, Windgrass: Postemergence; for Windgrass plant response rating (0 to 100 scale): postemergence, 0 is no effect, 100 is complete control
Method in brief: as §2

[9] = tested on: winter barley (Hordeum vulgare); test: Test B postemergence plant response; settings: for Barley plant response rating (0 to 100 scale): 0 is no effect
Method in brief: as §2

[10] = Postemergence, 125 g ai/ha, 0 to 100 scale where 0 is no effect and 100 is complete control
[11] = Postemergence, 500 g ai/ha, visual injury, 0 to 100 scale (0 no effect, 100 complete control), approx. ten days
[12] = Preemergence, 125 g ai/ha, 0 to 100 scale, 0 = no effect, 100 = complete control
[13] = Preemergence, 500 g ai/ha, 0 to 100 scale, 0 = no effect, 100 = complete control
[14] = Postemergence, 31 g ai/ha, 0 to 100 scale (0 no effect, 100 complete control)
[15] = Postemergence, 125 g ai/ha, scale 0 to 100 (0 no effect, 100 complete control)
[16] = Postemergence, 250 g ai/ha, scale 0 to 100 (0 no effect, 100 complete control), 13 to 15 days
[17] = 31 g ai/ha, 0 to 100 scale (0 no effect, 100 complete control)
[18] = 125 g ai/ha, scale 0 to 100 (0 no effect, 100 complete control)
[19] = 250 g ai/ha, scale 0 to 100 (0 no effect, 100 complete control), 13 to 15 days
[20] = 62 g ai/ha, postemergence, 100 is complete control, 13 to 15 days
[21] = Postemergence, 62 g ai/ha, scale 0 to 100 (0 no effect, 100 complete control)
[22] = Postemergence, 500 g ai/ha, 0 to 100 scale, 0 = no effect, 100 = complete control, approx. ten days
[23] = Preemergence, 500 g ai/ha, visual injury, 0 to 100 scale (0 no effect, 100 complete control), approx. ten days
[24] = 31 g ai/ha, postemergence, scale 0 to 100, 0 is no effect, 100 is complete control
[25] = Postemergence, 250 g ai/ha, scale 0 to 100 (0 no effect, 100 complete control)

`CCCn1c(-c2cc(Cl)cc(Cl)c2)ncc(C(=O)C2=C(O)CCCC2=O)c1=O` [Compound 173] was tested, and the “Plant response rating, Corn” value (corn (Zea mays); [10]) was 0, the “Corn plant response rating” value (corn (Zea mays); [11]) was 20 and the “Plant response rating, Corn” value (corn (Zea mays); [12]) was 0. For the same molecule, the “Plant response rating, Corn” value (corn (Zea mays); [13]) was 10, the “Plant response rating, Foxtail, Giant” value [1, 10] was 70 and the “Foxtail, Giant plant response rating” value [1, 11] was 90. The “Plant response rating, Foxtail, Giant” value [1, 12] was 20, the “Plant response rating, Foxtail, Giant” value [1, 13] was 40 and the “Plant response rating, Crabgrass, Large” value [2, 10] was 70. For the same molecule, the “Crabgrass, Large plant response rating” value [2, 11] was 90, the “Plant response rating, Crabgrass, Large” value [2, 12] was 40 and the “Plant response rating, Crabgrass, Large” value [2, 13] was 100. The “Plant response rating, Morningglory” value [3, 10] was 100, the “Morningglory plant response rating” value [3, 11] was 100 and the “Plant response rating, Morningglory” value [3, 12] was 0. For the same molecule, the “Plant response rating, Velvetleaf” value [4, 10] was 100, the “Velvetleaf plant response rating” value [4, 11] was 100 and the “Plant response rating, Velvetleaf” value [4, 12] was 70. For the same molecule, the “Plant response rating, Velvetleaf” value [4, 13] was 100, the “Plant response rating, Wheat” value [5, 10] was 0 and the “Wheat plant response rating” value [5, 11] was 60. For the same molecule, the “Plant response rating, Wheat” value [5, 12] was 0, the “Plant response rating, Wheat” value [5, 13] was 20 and the “Plant response rating, Canarygrass” value [6, 14] was 10. The “Plant response rating, Canarygrass” value [6, 15] was 40, the “Plant response rating, Canarygrass” value [6, 16] was 80 and the “Plant response rating, Chickweed” value [7, 14] was 65. The “Plant response rating, Chickweed” value [7, 15] was 100, the “Plant response rating, Chickweed” value [7, 16] was 100 and the “Plant response rating, Windgrass” value [8, 17] was 30. The “Plant response rating, Windgrass” value [8, 18] was 70, the “Plant response rating, Windgrass” value [8, 19] was 75 and the “Barley plant response rating (0 to 100 scale)” value (from here on “Barley plant response rating”) [9, 20] was 20. For the same molecule, the “Plant response rating, Barley” value [9, 14] was 5, the “Plant response rating, Barley” value [9, 15] was 35 and the “Plant response rating, Barley” value [9, 16] was 50.
For `CCn1c(-c2cccc(F)c2)ncc(C(=O)C2=C(O)C3CCC(C3)C2=O)c1=O` (stereo not drawn) [Compound 236], the “Plant response rating, Corn” value (corn (Zea mays); [10]) was 20, the “Corn plant response rating” value (corn (Zea mays); [11]) was 50 and the “Plant response rating, Corn” value (corn (Zea mays); [12]) was 0. For the same molecule, the “Plant response rating, Corn” value (corn (Zea mays); [13]) was 10, the “Plant response rating, Foxtail, Giant” value [1, 10] was 70 and the “Foxtail, Giant plant response rating” value [1, 11] was 90. The “Plant response rating, Foxtail, Giant” value [1, 12] was 40, the “Plant response rating, Foxtail, Giant” value [1, 13] was 70 and the “Plant response rating, Crabgrass, Large” value [2, 10] was 80. The “Crabgrass, Large plant response rating” value [2, 11] was 90, the “Plant response rating, Crabgrass, Large” value [2, 12] was 80 and the “Plant response rating, Crabgrass, Large” value [2, 13] was 100. For the same molecule, the “Plant response rating, Morningglory” value [3, 10] was 100, the “Morningglory plant response rating” value [3, 11] was 100 and the “Plant response rating, Morningglory” value [3, 12] was 70. For the same molecule, the “Plant response rating, Morningglory” value [3, 13] was 80, the “Plant response rating, Velvetleaf” value [4, 10] was 100 and the “Velvetleaf plant response rating” value [4, 11] was 100. The “Plant response rating, Velvetleaf” value [4, 12] was 80, the “Plant response rating, Velvetleaf” value [4, 13] was 100 and the “Plant response rating, Wheat” value [5, 10] was 0. The “Wheat plant response rating” value [5, 11] was 40, the “Plant response rating, Wheat” value [5, 12] was 0 and the “Plant response rating, Wheat” value [5, 13] was 30. The “Plant response rating, Canarygrass” value [6, 14] was 0, the “Plant response rating, Canarygrass” value [6, 15] was 0 and the “Plant response rating, Canarygrass” value [6, 16] was 10. The “Plant response rating, Canarygrass” value [6, 21] was 0, the “Plant response rating, Chickweed” value [7, 14] was 75 and the “Plant response rating, Chickweed” value [7, 15] was 100. The “Plant response rating, Chickweed” value [7, 16] was 100, the “Plant response rating, Chickweed” value [7, 21] was 100 and the “Plant response rating, Windgrass” value [8, 17] was 30. For the same molecule, the “Plant response rating, Windgrass” value [8, 19] was 85, the “Plant response rating, Windgrass” value ([8]; 62 g ai/ha, scale 0 to 100 (0 no effect, 100 complete control)) was 50 and the “Plant response rating, Barley” value [9, 14] was 0. For the same molecule, the “Plant response rating, Barley” value [9, 15] was 0, the “Plant response rating, Barley” value [9, 16] was 0 and the “Plant response rating, Barley” value [9, 21] was 0.
In the case of `COCCn1c(-c2ccco2)ncc(C(=O)C2=C(O)CCCC2=O)c1=O` [Compound 111], the “Plant response rating, Corn” value (corn (Zea mays); [10]) is reported as 0, the “Plant response rating, Corn” value (corn (Zea mays); [22]) is reported as 30 and the “Plant response rating, Corn” value (corn (Zea mays); [12]) is reported as 0. The “Plant response rating, Corn” value (corn (Zea mays); [23]) was 0, the “Plant response rating, Foxtail, Giant” value [1, 10] was 60 and the “Plant response rating, Foxtail, Giant” value [1, 22] was 90. The “Plant response rating, Foxtail, Giant” value [1, 23] was 70, the “Plant response rating, Crabgrass, Large” value [2, 10] was 90 and the “Plant response rating, Crabgrass, Large” value [2, 22] was 90. The “Plant response rating, Crabgrass, Large” value [2, 12] was 90, the “Plant response rating, Crabgrass, Large” value [2, 23] was 100 and the “Plant response rating, Morningglory” value [3, 10] was 100. The “Plant response rating, Morningglory” value [3, 22] was 100, the “Plant response rating, Morningglory” value [3, 12] was 50 and the “Plant response rating, Morningglory” value [3, 23] was 80. For the same molecule, the “Plant response rating, Velvetleaf” value [4, 10] was 100, the “Plant response rating, Velvetleaf” value [4, 22] was 100 and the “Plant response rating, Velvetleaf” value [4, 12] was 90. The “Plant response rating, Velvetleaf” value [4, 23] was 100, the “Plant response rating, Wheat” value [5, 10] was 0 and the “Plant response rating, Wheat” value [5, 22] was 0. For the same molecule, the “Plant response rating, Wheat” value [5, 12] was 0, the “Plant response rating, Wheat” value [5, 23] was 0 and the “Plant response rating, Canarygrass” value [6, 24] was 0. The “Canarygrass plant response rating (0 to 100 scale)” value [6, 20] was 0, the “Plant response rating, Canarygrass” value [6, 15] was 0 and the “Plant response rating, Canarygrass” value [6, 25] was 15. For the same molecule, the “Plant response rating, Chickweed” value [7, 24] was 95, the “Chickweed plant response rating (0 to 100 scale)” value [7, 20] was 100 and the “Plant response rating, Chickweed” value [7, 15] was 100. For the same molecule, the “Plant response rating, Chickweed” value [7, 25] was 100, the “Windgrass plant response rating (0 to 100 scale)” value ([8]; 62 g ai/ha, 13 to 15 days) was 30 and the “Plant response rating, Windgrass” value [8, 18] was 35. The “Plant response rating, Barley” value [9, 24] was 0, the “Barley plant response rating” value [9, 20] was 0 and the “Plant response rating, Barley” value [9, 15] was 5. The “Plant response rating, Barley” value [9, 25] was 30.
With `O=C1CCCC(O)=C1C(=O)c1cnc(-c2cccs2)n(CC2CCCO2)c1=O` (stereo not drawn) [Compound 109] the “Plant response rating, Corn” value (corn (Zea mays); [10]) was 0, the “Plant response rating, Corn” value (corn (Zea mays); [22]) was 30 and the “Plant response rating, Corn” value (corn (Zea mays); [12]) was 0. The “Plant response rating, Corn” value (corn (Zea mays); [23]) was 0, the “Plant response rating, Foxtail, Giant” value [1, 10] was 70 and the “Plant response rating, Foxtail, Giant” value [1, 22] was 90. For the same molecule, the “Plant response rating, Foxtail, Giant” value [1, 12] was 0, the “Plant response rating, Foxtail, Giant” value [1, 23] was 30 and the “Plant response rating, Crabgrass, Large” value [2, 10] was 90. For the same molecule, the “Plant response rating, Crabgrass, Large” value [2, 22] was 100, the “Plant response rating, Crabgrass, Large” value [2, 12] was 40 and the “Plant response rating, Crabgrass, Large” value [2, 23] was 90. The “Plant response rating, Morningglory” value [3, 10] was 90, the “Plant response rating, Morningglory” value [3, 22] was 100 and the “Plant response rating, Morningglory” value [3, 12] was 40. For the same molecule, the “Plant response rating, Morningglory” value [3, 23] was 70, the “Plant response rating, Velvetleaf” value [4, 10] was 100 and the “Plant response rating, Velvetleaf” value [4, 22] was 100. The “Plant response rating, Velvetleaf” value [4, 12] was 70, the “Plant response rating, Velvetleaf” value [4, 23] was 100 and the “Plant response rating, Wheat” value [5, 10] was 0. For the same molecule, the “Plant response rating, Wheat” value [5, 22] was 0, the “Plant response rating, Wheat” value [5, 12] was 0 and the “Plant response rating, Wheat” value [5, 23] was 0. The “Plant response rating, Canarygrass” value [6, 24] was 0, the “Canarygrass plant response rating (0 to 100 scale)” value [6, 20] was 0 and the “Plant response rating, Canarygrass” value [6, 15] was 30. For the same molecule, the “Plant response rating, Canarygrass” value [6, 25] was 45, the “Plant response rating, Chickweed” value [7, 24] was 90 and the “Chickweed plant response rating (0 to 100 scale)” value [7, 20] was 98. The “Plant response rating, Chickweed” value [7, 15] was 98, the “Plant response rating, Chickweed” value [7, 25] was 100 and the “Windgrass plant response rating (0 to 100 scale)” value ([8]; 62 g ai/ha, 13 to 15 days) was 40. For the same molecule, the “Plant response rating, Windgrass” value [8, 18] was 60, the “Plant response rating, Barley” value [9, 24] was 0 and the “Barley plant response rating” value [9, 20] was 0. For the same molecule, the “Plant response rating, Barley” value [9, 15] was 5 and the “Plant response rating, Barley” value [9, 25] was 5.

— patent publication US8952024B2, “Herbicidal pyrimidone derivatives” (E I du Pont de Nemours and Company, priority 2009, dated 2015)
